Drawing on paper PMC12040169 (PLOS Biology, 2025), this text covers viability for 55 molecules.

This data set in a line: in vitro. The conditions noted are these: human, hela cells, % viability.

As for `CCN1CCN(Cc2nc3c(c(=O)n(C)c(=O)n3C)n2CCc2ccccc2)CC1` [CBK269547], the viability – broadly, a read-out of living cells in per cent, often relative to untreated cells – at 28.5 h, 10 µM is 110%.
The same measure, in the same setting: as for `CN1CCN(C(=O)CN(c2cccc([N+](=O)[O-])c2)S(=O)(=O)c2ccccc2)CC1` [CBK264121], the figure is 87.6%; as for `Cc1ccc(Cl)c(OC(C)C(=O)N2CCN(c3ccccn3)CC2)c1` (stereo not shown) [CBK304650], 90.4%.
As for `Cn1c(OCc2cccnc2)nc2c1c(=O)n(Cc1ccc(Cl)c(Cl)c1)c(=O)n2C` [CBK267498], the viability at 28.5 h, 10 µM came out at 84.2%.
With `c1ccc(C(Nc2ncc(-c3cnccn3)c(-c3ccco3)n2)c2ccccc2)cc1` [CBK286413], the viability at 28.5 h, 10 µM is 90%.
As for `COc1ccc(NC(=O)CSc2cnn[nH]2)c(OC)c1` [CBK269969], the viability at 28.5 h, 10 µM turned out to be 76.7%.
With `Cc1ccc(Nc2nc(N3CCOCC3)nc(N3CCOCC3)n2)cc1` [CBK287732], the viability at 28.5 h, 10 µM came to 118%.
With `Cc1nn2c(-c3ccncc3)ccnc2c1-c1ccccc1` [CBK288548], the viability at 28.5 h, 10 µM stood at 103%.
Take `O=C(Nc1cc(Cl)ccc1Cl)C1CN(S(=O)(=O)c2ccccc2)CCN1S(=O)(=O)c1ccccc1` (stereo not shown) [CBK267004]: the viability at 28.5 h, 10 µM is 88.7%.
With `CCN=C(S)NS(=O)(=O)c1ccc(C)cc1` [CBK288452], the viability at 28.5 h, 10 µM is 86.2%.
Consider `O=C(NCCn1c(C(F)(F)F)cc(=O)c2cccc(F)c21)C1CC1` [CBK284807], for which the viability at 28.5 h, 10 µM is 85.5%.
For the molecule `O=C(Cc1c[nH]c(=O)[nH]c1=O)Nc1ncc(Cc2ccc(F)cc2)s1` [CBK285674], the viability at 28.5 h, 10 µM is 103%.
Take `CC1CCN(Cc2ccc(-c3nnn(CC(=O)NCc4ccc([N+](=O)[O-])cc4)n3)cc2)CC1` [CBK144176C]: the viability at 28.5 h, 10 µM was 101%.
Consider `CC(C)(C)OC(=O)N1CCN(Cc2nc(-c3ccccc3)no2)CC1` [CBK306465], for which the viability at 28.5 h, 10 µM is 99.8%.
For the molecule `COc1ccc(C2(CNC(C)(C)CN)CCCC2)cc1OC` [CBK008989], the viability at 28.5 h, 10 µM worked out at 104%.
On to `CSc1ncc(Cl)c(C(=O)Nc2sc3c(c2C(=O)NCc2cccnc2)CCC3)n1` [CBK268710], for which the viability at 28.5 h, 10 µM was found to be 95.9%.
As for `Cc1n[nH]c(=O)c2nc(-c3ccc(=O)[nH]n3)[nH]c12` [CBK008745], the viability at 28.5 h, 10 µM came out at 102%.
For `Cc1cc(S(=O)(=O)Nc2cc(C3CC3)nn2C)c(C)cc1Cl` [CBK043994], the viability at 28.5 h, 10 µM was 111%.
Consider `COc1ccc(S(=O)(=O)Nc2cc(C(=O)O)ccc2C)cc1NC(C)=O` [CBK296946], for which the viability at 28.5 h, 10 µM is 93.4%.
Take `Cc1cccc([C@@H]2CN(Cc3ccccc3)C[C@]23CCCCC(=O)N3)n1` [CBK283341]: the viability at 28.5 h, 10 µM came to 97.1%.
On to `COc1cc(C2C3=C(CC(C)(C)CC3=O)Nc3ncnn32)cc(OC)c1OC` (stereo not shown) [CBK265646], for which the viability at 28.5 h, 10 µM is 86.2%.
On the same count and under the same terms, as for `COC(=O)C1=C(C)OC(n2cccc2)=C(C#N)C1c1cc(OC)c(O)c(OC)c1` (stereo not shown) [CBK293994], the figure is 101%; as for `Cc1ccc(C(O)CN2CCC(O)(c3ccccc3F)CC2)cc1` (stereo not shown) [CBK283310], 93.8%.
Still for that read-out and setting: the result for `Cc1cccc(-c2ncc(NC(=O)Cc3cccc(Oc4ccccc4)c3)nc2-c2ccc(N)cc2)c1` [CBK037583] reads 97.2%; that for `Cc1ccc2cc(CN(Cc3ccco3)S(C)(=O)=O)c(O)nc2c1` [CBK269409], 105%.
Same read-out and setting: as for `Cc1noc(C)c1S(=O)(=O)Nc1nnn[nH]1` [CBK062378], the figure is 112%; as for `O=C1NC2(CCc3ccccc31)CCN(C(=O)c1ccc(F)cc1)C2` (stereo not shown) [CBK285308], 102%.
As for `COCCC(=O)NCc1ccccc1OC1CCNC1` (stereo not shown) [CBK024504T], the viability at 28.5 h, 10 µM was 136%.
With `CCn1c(SCC(=O)Nc2ccc(Br)cc2F)nnc1-c1ccc(OC)cc1` [CBK266172], the viability at 28.5 h, 10 µM is 100%.
Regarding `OCC1CCN(Cc2cnn(C3CCCCC3)c2)C1` (stereo not shown) [CBK283086], the viability at 28.5 h, 10 µM turned out to be 88.4%.
For `Cc1ccccc1C(NC(=O)C1CCN(C(=O)NCCc2ccccc2)CC1)c1ncccc1C` (stereo not shown) [CBK060409], the viability at 28.5 h, 10 µM stood at 91%.
For `COc1cc(S(=O)(=O)N2CCN(S(=O)(=O)c3cccc([N+](=O)[O-])c3)CC2)ccc1Cl` [CBK266285], the viability at 28.5 h, 10 µM amounted to 89.6%.
Same read-out and setting: the result for `O=C(O)c1ccc(N(Cc2ccccc2)S(=O)(=O)c2ccccc2)cc1` [CBK265375N] reads 92.8%.
As for `O=C(NCCO)C1CCCN(S(=O)(=O)c2ccc3ccccc3c2)C1` (stereo not shown) [CBK270090], the viability at 28.5 h, 10 µM turned out to be 83.7%.
On to `COCCn1cc(C(=O)N2CCN(C)CC2C)c2ccccc21` (stereo not shown) [CBK305123], for which the viability at 28.5 h, 10 µM (bulk resorufin, single well) is 102%.
In the case of `O=C(NCCN1CCOCC1)c1cc(-c2ccc(Cl)cc2)nc2ccccc12` [CBK262650], the viability at 28.5 h, 10 µM worked out at 96.6%.
For `Cc1sc2ncn(CC(=O)NCCc3c[nH]cn3)c(=O)c2c1C` [CBK304685], the viability at 28.5 h, 10 µM amounted to 99.3%.
As to `CCN(Cc1ccco1)C(=O)NC1CCCc2c1cnn2CCO` (stereo not shown) [CBK305767], the viability at 28.5 h, 10 µM was 101%.
As for `O=C1CC2(C(=O)N1Cc1ccccc1)C(=O)N(Cc1csc(-c3ccccc3)n1)c1ccccc12` (stereo not shown) [CBK075673], the viability at 28.5 h, 10 µM was determined as 112%.
Consider `CC12CN(S(=O)(=O)c3ccccc3)CC(c3ccccc3)(CN(S(=O)(=O)c3ccccc3)C1)C2=O` [CBK268101], for which the viability at 28.5 h, 10 µM is 97%.
In the case of `N#Cc1ccc(CNC(=O)c2ccc3nc[nH]c3c2)cc1` [CBK153332], the viability at 28.5 h, 10 µM came to 95.1%.
As to `CCCOC(=O)c1c(NC(=O)c2cc(-c3ccccc3)nc3ccccc23)sc2c1CCC(C)C2` (stereo not shown) [CBK262647], the viability at 28.5 h, 10 µM is 93.9%.
For the molecule `COc1ccc(C2(CN3CCC(NC(=O)C(C)C)CC3)CC2)cc1` [CBK285374], the viability at 28.5 h, 10 µM was 104%.
For `COc1ccc2c(c1)CC(=O)NC21CCN(C(=O)N[C@@H](C)c2ccccc2)CC1` [CBK047325], the viability at 28.5 h, 10 µM came to 92.4%.
In the case of `O=S(=O)(Nc1ncc(Br)c2cccnc12)c1ccc(Oc2ccccc2)cc1` [CBK073886], the viability at 28.5 h, 10 µM is 105%.
Consider `O=C(Nc1ccc(S(=O)(=O)Nc2ccc(Cl)cc2)cc1)c1ccc(Cn2cc(Br)cn2)o1` [CBK265764], for which the viability at 28.5 h, 10 µM is 108%.
On to `CC(=O)Nc1cccc(-c2cnc(N)c(NC3CCOCC3)n2)c1` [CBK063845], for which the viability at 28.5 h, 10 µM turned out to be 107%.
Consider `CCc1nn(CC(=O)N2CCCC2)c(=O)c2cc3sccc3n12` [CBK284028], for which the viability at 28.5 h, 10 µM is 85.8%.
For `Cc1cc(CN2CCC(O)(c3cccnc3F)CC2)oc1C` [CBK282124], the viability at 28.5 h, 10 µM was determined as 83%.
On to `Cc1cc(OC(C)C(=O)Nc2ncccc2C)ccc1Cl` (stereo not shown) [CBK269637], for which the viability at 28.5 h, 10 µM is 78.4%.
The same measure, in the same setting: as for `C=Cn1cc(CN2CCCC(O)(c3ccc(F)cc3)CC2)c(C)n1` (stereo not shown) [CBK285398], the figure is 106%; as for `Cc1ccc(CN(CCN(C)C)Cc2c(C)nc3sccn23)o1` [CBK283229], 116%.
Turning to `COc1ccc(C(C)C)cc1-c1cncc(N2CCC(C(=O)O)CC2)n1` [CBK037900], the viability at 28.5 h, 10 µM is 104%.
As for `c1ccc(N2CCOCC2)c(COc2cncc(N3CCNCC3)n2)c1` [CBK172351G], the viability at 28.5 h, 10 µM turned out to be 105%.
As to `Cc1ccc(C)c(NC(=O)Cc2nc(CN3CCNC(=O)C3)cs2)c1` [CBK305071], the viability at 28.5 h, 10 µM was 96.4%.
